According to ChEMBL document CHEMBL4418299, “Compounds useful as csf1 modulators” (2016):

Target: Macrophage colony-stimulating factor 1 receptor (Homo sapiens, UniProt P07333)
Experiment: Displacement of kinase tracer 236 from recombinant human His-tagged CSF1R cytoplasmic domain (538 to 910 residues) expressed in baculovirus-infected insect cells measured after 5 hrs by TR-FRET based LanthaScreen assay

Chain of Macrophage colony-stimulating factor 1 receptor (P07333 whole entry, the tested form may be a part): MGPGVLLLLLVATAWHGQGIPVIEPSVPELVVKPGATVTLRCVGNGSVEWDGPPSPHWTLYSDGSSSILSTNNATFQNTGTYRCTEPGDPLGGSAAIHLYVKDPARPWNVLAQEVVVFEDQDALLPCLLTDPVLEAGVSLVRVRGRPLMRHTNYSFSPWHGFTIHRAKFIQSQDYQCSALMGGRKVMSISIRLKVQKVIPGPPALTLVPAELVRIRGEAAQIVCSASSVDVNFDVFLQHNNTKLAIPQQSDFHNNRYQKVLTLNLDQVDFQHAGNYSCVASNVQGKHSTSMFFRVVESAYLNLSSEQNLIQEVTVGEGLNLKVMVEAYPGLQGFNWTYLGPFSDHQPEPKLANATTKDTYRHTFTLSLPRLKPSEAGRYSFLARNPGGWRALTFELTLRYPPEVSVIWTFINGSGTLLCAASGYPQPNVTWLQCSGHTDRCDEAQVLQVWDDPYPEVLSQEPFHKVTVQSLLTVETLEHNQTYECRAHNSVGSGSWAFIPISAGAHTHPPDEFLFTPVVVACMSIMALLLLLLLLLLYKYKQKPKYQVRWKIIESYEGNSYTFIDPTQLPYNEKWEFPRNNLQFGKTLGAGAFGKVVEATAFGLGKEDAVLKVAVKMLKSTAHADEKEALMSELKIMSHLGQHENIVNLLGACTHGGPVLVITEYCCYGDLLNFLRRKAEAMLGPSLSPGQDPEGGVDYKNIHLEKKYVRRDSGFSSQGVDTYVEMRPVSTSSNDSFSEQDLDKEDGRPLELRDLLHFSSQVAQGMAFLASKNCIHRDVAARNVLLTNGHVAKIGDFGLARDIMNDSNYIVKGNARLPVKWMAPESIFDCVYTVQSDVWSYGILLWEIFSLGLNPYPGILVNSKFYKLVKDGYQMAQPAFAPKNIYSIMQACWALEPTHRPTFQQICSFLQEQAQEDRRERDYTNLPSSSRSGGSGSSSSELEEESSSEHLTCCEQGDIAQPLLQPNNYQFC

Row | Compound | IC50 [µM]
1 | COc1ccc(NC(=O)Cc2ccc(-n3c4c(c5ncnc(N)c53)CCC4)cc2OC)c(F)c1 | < 0.01
2 | COc1cc(-n2c3c(c4ncnc(N)c42)COC3)ccc1NC(=O)Cc1cc(C(F)(F)F)ccc1F | 0.01 to 0.2
3 | COc1cc(-n2c3c(c4ncnc(N)c42)COC3)ccc1NC(=O)Cc1ccnc(C(F)(F)F)n1 | > 0.2
4 | Nc1ncnc2c3c(n(-c4ccc(NC(=O)Cc5c(F)cc(Cl)cc5F)cc4)c12)CCC3 | 0.01 to 0.2
5 | N#Cc1ccc(CC(=O)Nc2ccc(-n3c4c(c5ncnc(N)c53)CCC4)cc2)cc1 | < 0.01
6 | Nc1ncnc2c3c(n(-c4ccc(NC(=O)CC5CCN(C(=O)OCc6ccccc6)CC5)cc4)c12)CCC3 | 0.01 to 0.2
7 | COc1cc(-n2c3c(c4ncnc(N)c42)CCC3)ccc1NC(=O)Cc1ccc(C(F)(F)F)nn1 | 0.009
8 | Nc1ncnc2c3c(n(-c4ccc(NC(=O)Cc5cccnc5)cc4)c12)CCC3 | 0.01 to 0.2
9 | COc1cc(-n2c3c(c4ncnc(N)c42)CCC3)ccc1NC(=O)Cc1cc(C(F)(F)F)ccc1F | 0.01 to 0.2
10 | Nc1ncnc2c3c(n(-c4ccc(NC(=O)Cc5ccccc5)c(F)c4)c12)CCC3 | > 0.2
11 | COc1cc(-n2c3c(c4ncnc(N)c42)CCC3)ccc1NC(=O)Cc1ccccc1 | 0.01 to 0.2
12 | COc1cc(-n2c3c(c4ncnc(N)c42)COC3)ccc1NC(=O)Cc1ccnc(C(F)(F)F)c1 | 0.05
13 | COc1cc(-n2c3c(c4ncnc(N)c42)CCC3)ccc1CC(=O)Nc1ccc(C(F)(F)F)nc1 | < 0.01
14 | COc1cc(-n2c3c(c4ncnc(N)c42)CCC3)ccc1NC(=O)Cc1ccc2c(ccn2C)c1 | < 0.01
15 | Cn1ccc(CC(=O)Nc2ccc(-n3c4c(c5ncnc(N)c53)CCC4)cc2)n1 | > 0.2
16 | Nc1ncnc2c3c(n(-c4ccc(NC(=O)[C@@H](N)Cc5ccccc5)cc4)c12)CCC3 | > 0.2
17 | COc1cc(-n2c3c(c4ncnc(N)c42)CCC3)ccc1NC(=O)Cc1ccc(C)cc1F | < 0.01
18 | Nc1ncnc2c3c(n(-c4ccc(NC(=O)Cc5ccc6c(c5)OCO6)cc4)c12)CCC3 | 0.01 to 0.2
19 | Nc1ncnc2c3c(n(-c4ccc(CC(=O)NC5CCCCC5)cc4)c12)CCC3 | 0.01 to 0.2
20 | COc1ccc(CC(=O)Nc2ccc(-n3c4c(c5ncnc(N)c53)CCC4)cc2OC)cn1 | 0.01 to 0.2
21 | COc1ccc(CC(=O)Nc2ccc(-n3c4c(c5ncnc(N)c53)COC4)cc2)cc1F | 0.014
22 | COc1cc(-n2c3c(c4ncnc(N)c42)CCC3)ccc1NC(=O)Cc1cc(C)no1 | 0.01 to 0.2
23 | Cc1cnc(CC(=O)Nc2ccc(-n3c4c(c5ncnc(N)c53)CCC4)cc2)c(F)c1 | 0.01 to 0.2
24 | COc1ccc(CC(=O)Nc2ccc(-n3c4c(c5ncnc(N)c53)CCC4)cc2OC)cc1C | < 0.01

Row | Compound | IC50 [µM]
25 | COc1cc(-n2c3c(c4ncnc(N)c42)CCC3)ccc1NC(=O)Cc1ccc(C)c(F)c1 | < 0.01
26 | Nc1ncnc2c3c(n(-c4ccc(NC(=O)Cc5ccccc5)cc4)c12)COC3 | < 0.01
27 | COc1cc(-n2c3c(c4ncnc(N)c42)CCC3)ccc1NC(=O)Cc1cnc2c(ccn2C)c1 | < 0.01
28 | COc1cc(-n2c3c(c4ncnc(N)c42)COC3)ccc1NC(=O)Cc1ccc(Cl)c(C(F)(F)F)c1 | < 0.01
29 | COc1ccc(CC(=O)Nc2ccc(-n3c4c(c5ncnc(N)c53)COC4)cc2OC)cn1 | 0.01 to 0.2
30 | COc1cc(-n2c3c(c4ncnc(N)c42)CCC3)ccc1NC(=O)Cc1ncc(C)cc1F | 0.01 to 0.2
31 | COc1ccc(CC(=O)Nc2ccc(-n3c4c(c5ncnc(N)c53)COC4)cc2OC)cc1F | 0.01 to 0.2
32 | Nc1ncnc2c3c(n(-c4ccc(NC(=O)Cc5ccncc5)cc4)c12)CCC3 | > 0.2
33 | Nc1ncnc2c3c(n(-c4ccc(NC(=O)CN5CCCC5)cc4)c12)CCC3 | > 0.2
34 | Nc1ncnc2c3c(n(-c4ccc(NC(=O)Cc5ccc(C(F)(F)F)nn5)cc4)c12)COC3 | 0.01 to 0.2
35 | COc1cc(-n2c3c(c4ncnc(N)c42)CCC3)ccc1NC(=O)Cc1coc(-c2ccccc2)n1 | 0.01 to 0.2
36 | CC(=O)N1CCC(CC(=O)Nc2ccc(-n3c4c(c5ncnc(N)c53)CCC4)cc2)CC1 | > 0.2
37 | Nc1ncnc2c3c(n(-c4ccc(NC(=O)CN5CCOCC5)cc4)c12)CCC3 | > 0.2
38 | Nc1ncnc2c3c(n(-c4ccc(NC(=O)Cn5ccnc5)cc4)c12)CCC3 | > 0.2
39 | Nc1ncnc2c3c(n(-c4ccc(NC(=O)CCc5ccccc5)cc4)c12)CCC3 | 0.01 to 0.2
40 | Nc1ncnc2c3c(n(-c4ccc(NC(=O)Cc5ccc(Cl)nn5)cc4)c12)COC3 | > 0.2
41 | COc1ccc(CC(=O)Nc2ccc(-n3c4c(c5ncnc(N)c53)CCC4)cc2OC)cc1F | < 0.01
42 | COc1cc(-n2c3c(c4ncnc(N)c42)COC3)ccc1NC(=O)Cc1ccc(OC)c(C(F)(F)F)c1 | < 0.01
43 | COc1cc(-n2c3c(c4ncnc(N)c42)COC3)ccc1NC(=O)Cc1ccc(C(F)(F)F)nn1 | 0.01 to 0.2
44 | Cn1cc(CC(=O)Nc2ccc(-n3c4c(c5ncnc(N)c53)CCC4)cc2)cn1 | 0.01 to 0.2
45 | Nc1ncnc2c3c(n(-c4ccc(NC(=O)[C@@H](N)c5ccccc5)cc4)c12)CCC3 | > 0.2
46 | COc1cccc(CC(=O)Nc2ccc(-n3c4c(c5ncnc(N)c53)CCC4)cc2)n1 | 0.01 to 0.2
47 | Cn1cc(C(=O)Nc2ccc(-n3c4c(c5ncnc(N)c53)CCC4)cc2)c2ccccc21 | 0.01 to 0.2
